The record followed here is publication PMC6934184, “Selective DNA-PKcs inhibition extends the therapeutic index of localized radiotherapy and chemotherapy” (The Journal of Clinical Investigation, 2019).

This test addresses T1, KIT T670E (Homo sapiens, UniProt P10721, T670E).
T1 construct: purchased Thermo Fisher Scientific (Life Technologies) SelectScreen
Nature of the test: SelectScreen LanthaScreen. Particulars: read-out: % displacement. The format is binding. The procedure, abridged: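 SelectScreen broad panel; activity (Z'LYTE, Adapta) plus binding formats. ATP: Km app for CSF1R Z'LYTE; 10 for CAMK1 Adapta. Readout = % per kinase.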
For orientation: In TR-FRET formats the signal depends on donor and acceptor labels being close together.

The structures appear in SMILES notation.

T1 sequence (P10721 26-976 T670E): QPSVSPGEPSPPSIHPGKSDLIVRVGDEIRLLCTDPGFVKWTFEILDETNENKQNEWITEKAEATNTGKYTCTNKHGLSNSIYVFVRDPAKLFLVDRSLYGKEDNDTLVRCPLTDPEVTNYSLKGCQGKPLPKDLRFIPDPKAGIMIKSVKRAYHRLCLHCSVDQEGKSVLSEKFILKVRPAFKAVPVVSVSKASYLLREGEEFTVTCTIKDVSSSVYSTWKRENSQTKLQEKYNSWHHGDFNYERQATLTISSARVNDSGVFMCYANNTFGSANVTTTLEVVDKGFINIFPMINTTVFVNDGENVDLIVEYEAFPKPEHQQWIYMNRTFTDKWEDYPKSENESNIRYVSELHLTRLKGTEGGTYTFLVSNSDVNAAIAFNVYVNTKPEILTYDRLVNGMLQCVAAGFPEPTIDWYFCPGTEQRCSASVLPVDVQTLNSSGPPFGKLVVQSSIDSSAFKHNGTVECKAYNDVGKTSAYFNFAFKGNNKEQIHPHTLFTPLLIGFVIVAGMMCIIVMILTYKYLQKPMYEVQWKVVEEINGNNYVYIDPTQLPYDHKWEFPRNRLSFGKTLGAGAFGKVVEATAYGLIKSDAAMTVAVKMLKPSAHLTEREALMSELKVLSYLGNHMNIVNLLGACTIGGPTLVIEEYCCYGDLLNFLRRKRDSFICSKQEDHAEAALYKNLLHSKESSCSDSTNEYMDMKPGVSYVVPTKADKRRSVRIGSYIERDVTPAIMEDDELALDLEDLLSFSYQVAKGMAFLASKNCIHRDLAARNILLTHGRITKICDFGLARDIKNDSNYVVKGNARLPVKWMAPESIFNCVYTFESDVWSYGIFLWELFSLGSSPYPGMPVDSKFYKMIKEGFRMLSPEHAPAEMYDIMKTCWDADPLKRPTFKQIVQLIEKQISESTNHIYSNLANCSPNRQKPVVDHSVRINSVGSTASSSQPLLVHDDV

For `CN(C(=O)CN1CCOCC1)c1ccc2sc3c(-c4cccc5c(=O)cc(N6CC7CCC(C6)O7)oc45)cccc3c2c1` [NU5455], the inhibition at 1 µM is -2.8%.
